Where two headings read alike, the source gives them in different places. Marks after values point to notes of the source that are not given here.
[1] = Female, 4.69→ 2 mg/kg/wk, Day 15
[2] = female rats, 4.69→2 mg/kg/wk, Day 15
[3] = female rats, Group 3, 3.75/2.5 mg/kg/wk oral, Day 15
[4] = female rats, Group 4, 4.69/2 mg/kg/wk oral, Day 15
[5] = male rats, 4.69→2 mg/kg/wk, Day 15, 2 animals
[6] = male rats, Group 2, 3 mg/kg/wk, Day 15

CCC1(O)C(=O)OCc2c1cc1n(c2=O)Cc2cc3cc4c(cc3nc2-1)OCO4 (centres unmarked) [FL118]
decrease of body weight, males, Day 14 (3 mg/kg/wk): 18.15%
decrease of body weight, males, Day 14 (3.75→2.5 mg/kg/wk): 17.41%
mortality (4.69 (day 1) and 2 mg/kg/wk (day 8)): two male mice died on day 6 and day 12
decrease of body weight, males, Day 14 (4.69→2 mg/kg/wk): 47.53%
#LYMP, percent difference in mean values from concurrent controls [1]: −37.76%
WBC, percent difference in mean values from concurrent controls [1]: −33.69%
WBC, percent difference in mean values from concurrent controls (Male, 3 mg/kg/wk, Day 15): −16.11%
WBC, percent difference in mean values from concurrent controls (Male, 3.75→ 2.5 mg/kg/wk, Day 15): −11.98%
#LYMP, percent difference in mean values from concurrent controls (Male, 4.69→ 2 mg/kg/wk, Day 15): −57.17%
WBC, percent difference in mean values from concurrent controls (Male, 4.69→ 2 mg/kg/wk, Day 15): −52.17%
ALT, percent difference in mean values from concurrent controls [2]: 122%
sGLU, percent difference in mean values from concurrent controls [2]: −19.47%
#BASO, basophils, absolute, Mean [3]: 0.01 10^3/μL
#EOS, eosinophils, absolute, Mean [3]: 0.07 10^3/μL
#LYMP, lymphocytes, absolute, Mean [3]: 5.87 10^3/μL
#MONO, monocytes, absolute, Mean [3]: 0.17 10^3/μL
#NEUT, neutrophils, absolute, Mean [3]: 0.87 10^3/μL
% BASO, basophils, percent, Mean [3]: 0.2%
% EOS, eosinophils, percent, Mean [3]: 1.0%
% LYMP, lymphocytes, percent, Mean [3]: 83.5%
% MONO, monocytes, percent, Mean [3]: 2.4%
% NEUT, neutrophils, percent, Mean [3]: 12.1%
% RET, reticulocytes, percent, Mean [3]: 5.05%
ALB, albumin, Mean [3]: 37.5 g/L
ALP, alkaline phosphatase, Mean [3]: 83 U/L
ALT, alanine aminotransferase, Mean [3]: 33 U/L
AST, aspartate aminotransferase, Mean [3]: 89 U/L
BIL-T, total bilirubin, Mean [3]: 1.59 µmol/L
CK, creatine kinase, Mean [3]: 247 U/L
CRE, creatinine, Mean [3]: 24 µmol/L
Ca, calcium, Mean [3]: 2.42 mmol/L
GLB, globulin, Mean [3]: 23.0 g/L
HCT, hematocrit, Mean [3]: 19.8%
HGB, hemoglobin, Mean [3]: 13.2 g/dL
K, potassium, Mean [3]: 4.3 mmol/L
MCH, mean corpuscular hemoglobin, Mean [3]: 19.3 pg
MCHC, mean corpuscular hemoglobin concentration, Mean [3]: 33.3 g/dL
MCV, mean corpuscular volume, Mean [3]: 58.0 fL
MPV, mean platelet volume, Mean [3]: 6.8 fL
Na, sodium, Mean [3]: 142 mmol/L
P, inorganic phosphorus, Mean [3]: 2.20 mmol/L
PLT, platelet count, Mean [3]: 1295 10^3/μL
RBC, red blood cell, Mean [3]: 6.88 10^6/μL
RDW, RBC distribution width, Mean [3]: 12.9* %
TCHO, total cholesterol, Mean [3]: 1.70 mmol/L
TG, triglyceride, Mean [3]: 0.26 mmol/L
UREA, urea, Mean [3]: 6.29 mmol/L
WBC, white blood cell, Mean [3]: 7.03 10^3/μL
sGLU, glucose, Mean [3]: 9.43 mmol/L
#BASO, basophils, absolute, Mean [4]: 0.01 10^3/μL
#EOS, eosinophils, absolute, Mean [4]: 0.05 10^3/μL
#LYMP, lymphocytes, absolute, Mean [4]: 4.03 10^3/μL
#MONO, monocytes, absolute, Mean [4]: 0.13 10^3/μL
#NEUT, neutrophils, absolute, Mean [4]: 0.62 10^3/μL
% BASO, basophils, percent, Mean [4]: 0.1%
% EOS, eosinophils, percent, Mean [4]: 1.0%
% LYMP, lymphocytes, percent, Mean [4]: 82.7%
% MONO, monocytes, percent, Mean [4]: 2.9%
% NEUT, neutrophils, percent, Mean [4]: 12.7%
% RET, reticulocytes, percent, Mean [4]: 4.79%
ALB, albumin, Mean [4]: 36.6 g/L
ALP, alkaline phosphatase, Mean [4]: 88 U/L
ALT, alanine aminotransferase, Mean [4]: 75 U/L
AST, aspartate aminotransferase, Mean [4]: 222 U/L
BIL-T, total bilirubin, Mean [4]: 2.66 µmol/L
CK, creatine kinase, Mean [4]: 427 U/L
CRE, creatinine, Mean [4]: 24 µmol/L
Ca, calcium, Mean [4]: 2.37 mmol/L
GLB, globulin, Mean [4]: 22.0 g/L
HCT, hematocrit, Mean [4]: 40.0%
HGB, hemoglobin, Mean [4]: 13.6 g/dL
K, potassium, Mean [4]: 4.6 mmol/L
MCH, mean corpuscular hemoglobin, Mean [4]: 19.6 pg
MCHC, mean corpuscular hemoglobin concentration, Mean [4]: 33.8 g/dL
MCV, mean corpuscular volume, Mean [4]: 57.8 fL
MPV, mean platelet volume, Mean [4]: 6.7 fL
Na, sodium, Mean [4]: 142 mmol/L
P, inorganic phosphorus, Mean [4]: 1.92 mmol/L
PLT, platelet count, Mean [4]: 1278 10^3/μL
RBC, red blood cell, Mean [4]: 6.94 10^6/μL
RDW, RBC distribution width, Mean [4]: 13.7* %
TCHO, total cholesterol, Mean [4]: 1.37 mmol/L
TG, triglyceride, Mean [4]: 0.29 mmol/L
TP, total protein, Mean [4]: 58.5 g/L
UREA, urea, Mean [4]: 9.54 mmol/L
WBC, white blood cell, Mean [4]: 4.85 10^3/μL
sGLU, glucose, Mean [4]: 8.25 mmol/L
ALT, percent difference in mean values from concurrent controls (male rats, 3 mg/kg/wk, Day 15): 19%
ALT, percent difference in mean values from concurrent controls (male rats, 3.75→2.5 mg/kg/wk, Day 15): 34%
ALT, percent difference in mean values from concurrent controls [5]: 275%
sGLU, percent difference in mean values from concurrent controls [5]: −59.96%
#BASO Mean [6]: 0.02 10^3/μL
#EOS Mean [6]: 0.06 10^3/μL
#LYMP Mean [6]: 7.94 10^3/μL
#MONO Mean [6]: 0.21 10^3/μL
#NEUT Mean [6]: 0.72 10^3/μL
#RET Mean [6]: 337.2 10^9/L
% BASO Mean [6]: 0.2%
% EOS Mean [6]: 0.7%
% LYMP Mean [6]: 88.2%
% MONO Mean [6]: 2.5%
% NEUT Mean [6]: 7.9%
% RET Mean [6]: 4.68%
HCT Mean [6]: 42.1* %
MCH Mean [6]: 19.2 pg
MCHC Mean [6]: 32.8 g/dL
MCV Mean [6]: 58.3 fL
MPV Mean [6]: 6.6 fL
PLT Mean [6]: 1172 10^3/μL
RBC Mean [6]: 7.22 10^6/μL
RDW Mean [6]: 13.5** %
WBC Mean [6]: 9.01 10^3/μL
#BASO % Diff (male rats, Group 2, 3 mg/kg/wk, Day 15, vs Group 1): −25.00%
